The source of these data is patent US12172975B2, “1H-indazole carboxamides as receptor-interacting protein kinase 1 inhibitors (RIPK1)” (BRISTOL-MYERS SQUIBB COMPANY, priority 2018, dated 2024).

pIC50: −log10 of the molar value. Where a name gives a salt, the structure may show the parent alone.

The first experiment relates to MLKL phosphorylation in HT29-L23 human colorectal adenocarcinoma cells. The experiment is described as follows: MLKL Phosphorylation High-Content Assay. Particulars: Homo sapiens, 6 h, necroptosis induced with TNFα, SMAC mimetic and Z-VAD, read-out: pMLKL (IC50). The format is cell-based. The method, then: MLKL Phosphorylation High-Content Assay
HT29-L23 human colorectal adenocarcinoma cells were maintained in RPMI 1640 medium containing 10% heat-inactivated FBS, 1% Penicillin-Streptomycin and 10 mM HEPES. Cells were seeded at 2,000 cells/well in 384 well tissue culture-treated microplates (Greiner #781090-3B) and incubated at 37° C. (5% CO2/95% O2) for 2 d. […] (5% CO2/95% O2). Necroptopsis was induced using a mixture of human TNFα (35 ng/mL) (Peprotech #300-01A), SMAC mimetic (from US 2015/0322111 A1) (700 nM) and Z-VAD ([…]) (BD pharmingen #51-6936). Following 6 h incubation at 37° C. (5% CO2/95% O2), the cells were fixed with 4% formaldehyde (ACROS 11969-0010) for 15 min at rt, then permeabilized with phosphate buffered saline (PBS) containing 0.2% Triton-X-100 for 10 min. MLKL phosphorylation was detected using anti-MLKL (phospho S358) antibody (Abeam #ab 187091) (1:1000 dilution in Blocking Buffer [PBS supplemented with 0.1% BSA]) with ON incubation at 4° C. After washing three times in PBS, goat anti-rabbit Alexa-488 (1:1000 dilution) (Life Technologies, A11008) and Hoechst 33342 (Life Technologies, H3570) (1:2000 dilution) in Blocking Buffer were added for 1 h at rt.
Following another three cycles of washes in PBS, the microplates were sealed, and cellular images were acquired in the Cellomics ArrayScan VTI high-content imager equipped with an X1 camera. Fluorescent images were taken using a 10× objective and the 386-23 BGRFRN_BGRFRN and 485-20 BGRFRN_BGRFRN filter sets, for nuclei and MLKL phosphorylation, respectively. The image sets were analyzed using the Compartmental Analysis Bioapplication software (Cellomics). The level of MLKL phosphorylation was quantified as MEAN_CircRingAvglntenRatio. The maximal inhibitory response was defined by the activity induced by Neels (CAS #: 852391-15-2, 6.25 μM). […] The data were fitted using the 4-parameter logistic equation to calculate the IC50 and Ymax values.
One may read the pIC50 as the negative decadic logarithm of the IC50, by convention in mol/L. Take `[2H]C([2H])([2H])Oc1ncc(-c2ccc3c(C(=O)NC)n[nH]c3c2)cc1C(=O)NC(C)c1ccccc1OC(F)(F)F` (single isomer, unassigned) [Example 15, 6-(6-methoxyd3-5-((1-(2-(trifluoromethoxy)phenyl)ethyl)carbamoyl)pyridin-3-yl)-N-methyl-1H-indazole-3-carboxamide]: the pIC50 is 8.47. Turning to `[2H]C([2H])([2H])Oc1ncc(-c2ccc3c(C(=O)NC)n[nH]c3c2)cc1C(=O)N[C@@H](c1cc(C(F)(F)F)ccc1F)C([2H])([2H])[2H]` [Example 4, (R)-6-(5-((1-(2-fluoro-5-(trifluoromethyl)phenyl)ethyl-2,2,2-d3)carbamoyl)-6-(methoxy-d3)pyridin-3-yl)-N-methyl-1H-indazole-3-carboxamide, TFA], the pIC50 was 7.72. Still for that read-out and setting: under `[2H]C([2H])([2H])NC(=O)c1n[nH]c2cc(-c3cnc(OC([2H])([2H])[2H])c(C(=O)N[C@@H](C)c4cc(OC(F)(F)F)ccc4F)c3)ccc12` [Example 5, (S)-6-(5-((1-(2-fluoro-5-(trifluoromethoxy)phenyl)ethyl)carbamoyl)-6-(methoxy-d3)pyridin-3-yl)-N-(methyl-d3)-1H-indazole-3-carboxamide] stands 8.05; under `[2H]C([2H])([2H])Oc1ncc(-c2ccc3c(C(=O)NC)n[nH]c3c2)cc1C(=O)N[C@@H](c1cc(OC(F)(F)F)ccc1F)C([2H])([2H])[2H]` [Example 9, (R)-6-(5-((1-(2-fluoro-5-(trifluoromethoxy)phenyl)ethyl-2,2,2-d3)carbamoyl)-6-(methoxy-d3)pyridin-3-yl)-N-methyl-1H-indazole-3-carboxamide, TFA], 7.66. Still for that read-out and setting: the same measure for `[2H]C([2H])([2H])Oc1ncc(-c2ccc3c(C(=O)NC)n[nH]c3c2)cc1C(=O)N[C@H](c1cc(OC(F)(F)F)ccc1F)C([2H])([2H])[2H]` [Example 10, (S)-6-(5-((1-(2-fluoro-5-(trifluoromethoxy)phenyl)ethyl-2,2,2-d3)carbamoyl)-6-(methoxy-d3)pyridin-3-yl)-N-methyl-1H-indazole-3-carboxamide]: 8.19; for `[2H]C([2H])([2H])Oc1ncc(-c2ccc3c(C(=O)NC)n[nH]c3c2)cc1C(=O)N[C@@H](c1cccc(OC(F)(F)F)c1)C([2H])([2H])[2H]` [Example 11, (R)-6-(6-(methoxy-d3)-5-((1-(3-(trifluoromethoxy)phenyl)ethyl-2,2,2-d3)carbamoyl)pyridin-3-yl)-N-methyl-1H-indazole-3-carboxamide, TFA]: 6.65.

Consider `[2H]C([2H])([2H])Oc1ncc(-c2ccc3c(C(=O)NC)n[nH]c3c2)cc1C(=O)N[C@H](C)c1cccc(OC(F)(F)F)c1` [Example 14, (R)-6-(6-methoxyd3-5-((1-(3-(trifluoromethoxy)phenyl)ethyl)carbamoyl)pyridin-3-yl)-N-methyl-1H-indazole-3-carboxamide], for which the pIC50 is 7.43. For `[2H]C([2H])([2H])Oc1ncc(-c2ccc3c(C(=O)NC)n[nH]c3c2)cc1C(=O)N[C@@H](C)c1cccc(OC(F)(F)F)c1` [Example 25], the pIC50 was 6.72. Regarding `[2H]C([2H])([2H])Oc1ncc(-c2ccc3c(C(=O)NC)n[nH]c3c2)cc1C(=O)N[C@H](C)CC(=O)OC(C)(C)C` [Example 29, tert-butyl (3R)-3-{[2-(deutero)-methoxy-5-[3-(methylcarbam-oyl)-1H-indazol-6-yl]pyridin-3-yl]formamido}butanoate], the pIC50 was 7.12. In the case of `[2H]C([2H])([2H])Oc1ncc(-c2ccc3c(C(=O)NC)n[nH]c3c2)cc1C(=O)N[C@H](C)c1cc(OC(F)(F)F)ccc1F` [Example 30, 6-(5-{[(1R)-1-[2-fluoro-5-(tri-fluoromethoxy)phenyl]ethyl]-carbamoyl}-6-(deutero)methoxy-pyridin-3-yl)-N-methyl-1H-indazole-3-carboxamide], the pIC50 is 7.32. Take `[2H]C([2H])([2H])Oc1ncc(-c2ccc3c(C(=O)NC)n[nH]c3c2)cc1C(=O)N[C@@H](C)c1cc(C(F)(F)F)ccc1F` [Example 32, 6-(5-{[(1S)-1-[2-fluoro-5-(trifluoromethyl)phenyl]ethyl]-carbamoyl}-6-(deutero)meth-oxypyridin-3-yl)-N-methyl-1H-indazole-3-carboxamide]: the pIC50 is 7.72. `[2H]C([2H])([2H])Oc1ncc(-c2ccc3c(C(=O)NC)n[nH]c3c2)cc1C(=O)N[C@H](C)c1ccccc1C(F)(F)F` [Example 33, 6-[6-(deutero)methoxy-5-{[(1R)-1-[2-(trifluoromethyl)phenyl]-ethyl]carbamoyl}pyridin-3-yl]-N-methyl-1H-indazole-3-carbox-amide]: the pIC50 is 7.60. On the same count and under the same terms, the same measure for `CNC(=O)c1n[nH]c2cc(-c3cnc(OC)c(C(=O)NCCC(O)c4ccc(OC)cc4)c3)ccc12` (centres unmarked) [Example 38, 6-(5-{[3-hydroxy-3-(4-methoxy-phenyl)propyl]carbamoyl}-6-methoxypyridin-3-yl)-N-methyl-1H-indazole-3-carboxamide]: 7.89; for `CNC(=O)c1n[nH]c2cc(-c3cnc(OC)c(C(=O)NCCC(O)c4ccc(F)c(F)c4)c3)ccc12` (centres unmarked) [Example 39, 6-(5-{[3-(3,4-difluorophenyl)-3-hydroxypropyl]carbamoyl}-6-methoxypyridin-3-yl)-N-methyl-1H-indazole-3-carboxamide]: 8.10; for `CNC(=O)c1n[nH]c2cc(-c3cnc(OC)c(C(=O)NCCC(O)c4ccc(F)cc4)c3)ccc12` (centres unmarked) [Example 40, 6-(5-{[3-(4-fluorophenyl)-3-hydroxypropyl]carbamoyl}-6-methoxypyridin-3-yl)-N-methyl-1H-indazole-3-carboxamide]: 8.24. Consider `CNC(=O)c1n[nH]c2cc(-c3cnc(OC)c(C(=O)NCCC(C)c4ccc(F)cc4)c3)ccc12` (centres unmarked) [Example 41, 6-(5-{[3-(4-fluorophenyl)-butyl]carbamoyl}-6-methoxy-pyridin-3-yl)-N-methyl-1H-indazole-3-carboxamide], for which the pIC50 is 9.22. Turning to `CNC(=O)c1n[nH]c2cc(-c3cnc(OC)c(C(=O)NCC4CC4c4cccc(F)c4)c3)ccc12` (centres unmarked) [Example 42, 6-[5-({[2-(3-fluorophenyl)cyclo-propyl]methyl}carbamoyl)-6-methoxypyridin-3-yl]-N-methyl-1H-indazole-3-carboxamide], the pIC50 is 7.06. Same read-out and setting: under `CNC(=O)c1n[nH]c2cc(-c3cnc(OC)c(C(=O)N[C@@H]4C[C@H]4c4ccccc4)c3)ccc12` [Example 45, 6-(6-methoxy-5-{[(1R,2S)-2-phenylcyclopropyl]carbamoyl}-pyridin-3-yl)-N-methyl-1H-indazole-3-carboxamide] stands 8.30; under `CNC(=O)c1n[nH]c2cc(-c3cnc(OC)c(C(=O)N[C@H]4C[C@@H]4c4ccccc4)c3)ccc12` [Example 46, 6-(6-methoxy-5-{[(1S,2R)-2-phenylcyclopropyl]carbamoyl}-pyridin-3-yl)-N-methyl-1H-indazole-3-carboxamide], 8.36.

Staying with this experiment, now noted: necroptosis induced with TNFα, SMAC mimetic and Z-VAD, 6 h, read-out: pMLKL (IC50).
Regarding `CNC(=O)c1n[nH]c2cc(-c3cnc(OC)c(C(=O)NC[C@H]4C[C@@H]4c4ccc(F)cc4)c3)ccc12` [Example 43, 6-[5-({[(1S,2S)-2-(4-fluoro-phenyl)cyclopropyl]methyl}-carbamoyl)-6-methoxypyridin-3-yl]-N-methyl-1H-indazole-3-carboxamide], the pIC50 is 7.00.
